Reference: patent US20230149400A1, “METHODS AND COMPOSITIONSFOR TREATING VIRAL INFECTIONS” (ACLARIS THERAPEUTICS, INC., priority 2020, published 2023)
Where two headings read alike, the source gives them in different places.

Columns and labels:
[1] = test system: lung polymorphonuclear neutrophils (PMN); assay: Rat model of pulmonary inflammation (LPS aerosol), lung lavage PMN count; settings: oral 1 mg/kg or 10 mg/kg, 4 hours after LPS exposure, versus vehicle
Procedure: One hour after administration, animals were placed in an aerosol chamber containing 60 μg/mL lipopolysaccharide (LPS) for 40 minutes and then removed to room air. Four hours after LPS exposure, lungs of the animals were lavaged with cold D-PBS/EDTA solution and the total number of polymorphonuclear neutrophils (PMN) in the solution were counted as an indicator of the inflammatory response.

[2] = test subjects
[3] = test system: lipopolysaccharide (TLR4)-stimulated cytokines and chemokines; assay: Ex vivo LPS (TLR4)-stimulated cytokine/chemokine production in whole blood of subjects given oral ATI-450; parameters: species or system human; settings: for inhibition at 50 mg: Homo sapiens, po, both cohorts (100 mg once daily; 50 mg twice daily), compared to placebo
Procedure: Data were collected following stimulation by a lipopolysaccharide (LPS) at a single time point (5 hours) in each isolated ex vivo human whole blood sample collected. […]. Cytokines evaluated include: IL-1b, IL-1RA, IL-2, IL-7, IL-8, IL-9, IL-10, basic FGF, GCSF, GMCSF, IFNγ, IP-10, MCP-1, MIP-1α, MIP-1β, PDGF, TNFα, and VEGF.

[4] = Cohort 1 (SAD), 100 mg ATI-450 once daily
[5] = Cohort 2 (MAD), 50 mg ATI-450 twice daily

**Q.** Which “total lung PMNs” value [1] does the source give for `Cc1cnc(-c2ccnc(C(C)(C)O)n2)cc1-n1c(C)cc(OCc2ncc(F)cc2F)c(Cl)c1=O` (single isomer, unassigned) [ATI-450, 3-chloro-4-((3,5-difluoropyridin-2-yl)methoxy)-2′-(2-(2-hydroxypropan-2-yl)pyrimidin-4-yl)-5′,6-dimethyl-2H-[1,4′-bipyridin]-2-one] here?
**A.** significantly reduced

**Q.** And the tolerability [2]?
**A.** well tolerated

**Q.** What about the “LPS-stimulated IL-6, IL-8, MIP-1β, G-CSF, IL-1RA, IP-10, and MCP-1 levels” value ([3]; 50 mg ATI-450 twice daily) of the same compound?
**A.** reduction

**Q.** And the “LPS-stimulated IL-6, IL-8, and MIP-1β release” value ([3]; 100 mg ATI-450 once daily)?
**A.** reduction

**Q.** What about the “GCSF Not Stimulated” value [3, 4] of the same compound?
**A.** 25.01 pg/mL

**Q.** What about the “GCSF Stimulated” value [3, 4] of the same compound?
**A.** 232.34 pg/mL

**Q.** What about the “GMCSF Not Stimulated” value [3, 4] of the same compound?
**A.** 0.46 pg/mL

**Q.** And the “GMCSF Stimulated” value [3, 4]?
**A.** 25.12 pg/mL

**Q.** What about the “IFNγ Not Stimulated” value [3, 4] of the same compound?
**A.** 12.54 pg/mL

**Q.** What about the “IFNγ Stimulated” value [3, 4] of the same compound?
**A.** 57.72 pg/mL

**Q.** And the “IL-1RA Not Stimulated” value [3, 4]?
**A.** 974.42 pg/mL

**Q.** What about the “IL-1RA Stimulated” value [3, 4] of the same compound?
**A.** 7169.95 pg/mL

**Q.** And the “IL-1β Not Stimulated” value [3, 4]?
**A.** 1.86 pg/mL

**Q.** And the “IL-1β Stimulated” value [3, 4]?
**A.** 776.88 pg/mL

**Q.** And the “IL-2 Not Stimulated” value [3, 4]?
**A.** 0.65 pg/mL

**Q.** What about the “IL-2 Stimulated” value [3, 4] of the same compound?
**A.** 30.06 pg/mL

**Q.** And the “IL-6 Not Stimulated” value [3, 4]?
**A.** 15.28 pg/mL

**Q.** And the “IL-6 Stimulated” value [3, 4]?
**A.** 8700.41 pg/mL

**Q.** What about the “IL-7 Not Stimulated” value [3, 4] of the same compound?
**A.** 8.79 pg/mL

**Q.** What about the “IL-7 Stimulated” value [3, 4] of the same compound?
**A.** 8.04 pg/mL

**Q.** What about the “IL-8 Not Stimulated” value [3, 4] of the same compound?
**A.** 1564.00 pg/mL

**Q.** And the “IL-8 Stimulated” value [3, 4]?
**A.** 24421.33 pg/mL

**Q.** What about the “IL-9 Not Stimulated” value [3, 4] of the same compound?
**A.** 0.00 pg/mL

**Q.** What about the “IL-9 Stimulated” value [3, 4] of the same compound?
**A.** 0.00 pg/mL

**Q.** And the “IL-10 Not Stimulated” value [3, 4]?
**A.** 22.57 pg/mL

**Q.** What about the “IL-10 Stimulated” value [3, 4] of the same compound?
**A.** 752.46 pg/mL

**Q.** What about the “IP-10 Not Stimulated” value [3, 4] of the same compound?
**A.** 288.07 pg/mL

**Q.** What about the “IP-10 Stimulated” value [3, 4] of the same compound?
**A.** 1487.58 pg/mL

**Q.** What about the “MCP-1 Not Stimulated” value [3, 4] of the same compound?
**A.** 1026.37 pg/mL

**Q.** And the “MCP-1 Stimulated” value [3, 4]?
**A.** 1215.21 pg/mL

**Q.** And the “MIP-1α Not Stimulated” value [3, 4]?
**A.** 105.22 pg/mL

**Q.** What about the “MIP-1α Stimulated” value [3, 4] of the same compound?
**A.** 32722.63 pg/mL

**Q.** What about the “MIP-1β Not Stimulated” value [3, 4] of the same compound?
**A.** 504.74 pg/mL

**Q.** And the “MIP-1β Stimulated” value [3, 4]?
**A.** 49549.56 pg/mL

**Q.** And the “TNFα Not Stimulated” value [3, 4]?
**A.** 8.57 pg/mL

**Q.** What about the “TNFα Stimulated” value [3, 4] of the same compound?
**A.** 5270.06 pg/mL

**Q.** And the “VEGF Not Stimulated” value [3, 4]?
**A.** 186.34 pg/mL

**Q.** And the “VEGF Stimulated” value [3, 4]?
**A.** 231.92 pg/mL

**Q.** What about the “bFGF Not Stimulated” value [3, 4] of the same compound?
**A.** 29.69 pg/mL

**Q.** What about the “bFGF Stimulated” value [3, 4] of the same compound?
**A.** 28.63 pg/mL

**Q.** And the “inhibition of LPS-stimulated IL-1RA” value ([3]; Cohort 1 and Cohort 2)?
**A.** about 30%

**Q.** What about the “inhibition of LPS-stimulated IL-10” value ([3]; Cohort 1 and Cohort 2) of the same compound?
**A.** about 30%

**Q.** What about the “GCSF Not Stimulated” value [3, 5] of the same compound?
**A.** 16.33 pg/mL

**Q.** And the “GCSF Stimulated” value [3, 5]?
**A.** 292.44 pg/mL

**Q.** And the “GMCSF Not Stimulated” value [3, 5]?
**A.** 0.21 pg/mL

**Q.** What about the “GMCSF Stimulated” value [3, 5] of the same compound?
**A.** 19.15 pg/mL

**Q.** And the “IFNγ Not Stimulated” value [3, 5]?
**A.** 33.45 pg/mL

**Q.** And the “IFNγ Stimulated” value [3, 5]?
**A.** 57.81 pg/mL

**Q.** And the “IL-1RA Not Stimulated” value [3, 5]?
**A.** 893.81 pg/mL

**Q.** What about the “IL-1RA Stimulated” value [3, 5] of the same compound?
**A.** 13830.24 pg/mL

**Q.** And the “IL-1β Not Stimulated” value [3, 5]?
**A.** 2.25 pg/mL

**Q.** And the “IL-1β Stimulated” value [3, 5]?
**A.** 381.38 pg/mL

**Q.** And the “IL-2 Not Stimulated” value [3, 5]?
**A.** 2.86 pg/mL

**Q.** And the “IL-2 Stimulated” value [3, 5]?
**A.** 14.18 pg/mL

**Q.** And the “IL-6 Not Stimulated” value [3, 5]?
**A.** 5.70 pg/mL

**Q.** What about the “IL-6 Stimulated” value [3, 5] of the same compound?
**A.** 9359.59 pg/mL

**Q.** What about the “IL-7 Not Stimulated” value [3, 5] of the same compound?
**A.** 7.40 pg/mL

**Q.** What about the “IL-7 Stimulated” value [3, 5] of the same compound?
**A.** 6.87 pg/mL

**Q.** And the “IL-8 Stimulated” value [3, 5]?
**A.** 30259.47 pg/mL

**Q.** What about the “IL-9 Not Stimulated” value [3, 5] of the same compound?
**A.** 3.10 pg/mL

**Q.** What about the “IL-9 Stimulated” value [3, 5] of the same compound?
**A.** 2.77 pg/mL

**Q.** And the “IL-10 Not Stimulated” value [3, 5]?
**A.** 2.05 pg/mL

**Q.** And the “IL-10 Stimulated” value [3, 5]?
**A.** 108.90 pg/mL

**Q.** And the “IP-10 Not Stimulated” value [3, 5]?
**A.** 474.58 pg/mL

**Q.** What about the “IP-10 Stimulated” value [3, 5] of the same compound?
**A.** 1513.02 pg/mL

**Q.** What about the “MCP-1 Not Stimulated” value [3, 5] of the same compound?
**A.** 728.09 pg/mL

**Q.** What about the “MCP-1 Stimulated” value [3, 5] of the same compound?
**A.** 1124.80 pg/mL

**Q.** And the “MIP-1α Not Stimulated” value [3, 5]?
**A.** 193.51 pg/mL

**Q.** And the “MIP-1α Stimulated” value [3, 5]?
**A.** 38207.05 pg/mL

**Q.** What about the “MIP-1β Not Stimulated” value [3, 5] of the same compound?
**A.** 806.79 pg/mL

**Q.** And the “MIP-1β Stimulated” value [3, 5]?
**A.** 89906.73 pg/mL

**Q.** And the “TNFα Not Stimulated” value [3, 5]?
**A.** 13.44 pg/mL

**Q.** And the “TNFα Stimulated” value [3, 5]?
**A.** 6402.98 pg/mL

**Q.** What about the “VEGF Not Stimulated” value [3, 5] of the same compound?
**A.** 202.39 pg/mL

**Q.** And the “VEGF Stimulated” value [3, 5]?
**A.** 191.77 pg/mL

**Q.** What about the “bFGF Not Stimulated” value [3, 5] of the same compound?
**A.** 25.04 pg/mL

**Q.** What about the “bFGF Stimulated” value [3, 5] of the same compound?
**A.** 24.50 pg/mL

**Q.** And the inhibition at 50 mg ([3]; read-out: inhibition of LPS-stimulated GM-CSF)?
**A.** ≥ 70%

**Q.** What about the inhibition at 50 mg ([3]; read-out: inhibition of LPS-stimulated IFNγ) of the same compound?
**A.** ≥ 70%

**Q.** What about the inhibition at 50 mg ([3]; read-out: inhibition of LPS-stimulated IL-2) of the same compound?
**A.** ≥ 70%

**Q.** What about the inhibition at 50 mg ([3]; read-out: inhibition of LPS-stimulated MIP-1α) of the same compound?
**A.** ≥ 70%
